Data published in patent US12084411B2, “Hinokitiol analogues, methods of preparing and pharmaceutical compositions thereof” (The Board of Trustees of the University of Illinois, priority 2018, dated 2024).

What was measured:
fet3Δarn1-4Δ yeast = test: Growth rescue of yeast missing all known siderophore transporters on agar plates; format: cell-based, Saccharomyces cerevisiae; conditions: 10 μM hinokitiol, 10 μM FeCl3
Protocol: MES/Tris buffer at pH=7.0 containing 2% agarose gel, 10 μM FeCl3, and 10 μM hinokitiol (from 40X stock in DMSO). […] Yeast were grown overnight in YPD media and diluted to an optical density at 600 nm (OD600) of 1.0 in low iron SD media before 10-fold serial dilution and inoculation of these yeast suspensions (10 μL per dot) onto the low iron SD-agar plates described above containing either DMSO vehicle or hinokitiol (10 μM from 40X DMSO stock).

fet3Δftr1Δ yeast = test: Sustainability assay; format: cell-based, Saccharomyces cerevisiae; conditions: 10 μM hinokitiol, 10 μM FeCl3
Protocol: Sustainable hinokitiol-promoted growth restoration of fet3Δftr1Δ yeast was performed similar to previously reported (20) by inoculation of hinokitiol-rescued yeast from low iron SD-agar plates containing 10 μM hinokitiol and 10 μM FeCl3 into low iron SD liquid media containing 10 μM hinokitiol and 10 μM FeCl3, then streaking of the yeast suspension (diluted to OD600 of 0.1) onto agar plates. This process was repeated for >100 days. Continued reliance of fet3Δftr1Δ yeast growth on hinokitiol was observed, as removal of hinokitiol from the SD-agar plates led to no fet3Δftr1Δ yeast cell growth.

transferrin = transferrin (Homo sapiens, UniProt P02787); test: Removal of 55Fe from transferrin; format: biochemical; conditions: buffered solution, 1 nM transferrin
Sequence of transferrin (P02787 20-698, species assumed): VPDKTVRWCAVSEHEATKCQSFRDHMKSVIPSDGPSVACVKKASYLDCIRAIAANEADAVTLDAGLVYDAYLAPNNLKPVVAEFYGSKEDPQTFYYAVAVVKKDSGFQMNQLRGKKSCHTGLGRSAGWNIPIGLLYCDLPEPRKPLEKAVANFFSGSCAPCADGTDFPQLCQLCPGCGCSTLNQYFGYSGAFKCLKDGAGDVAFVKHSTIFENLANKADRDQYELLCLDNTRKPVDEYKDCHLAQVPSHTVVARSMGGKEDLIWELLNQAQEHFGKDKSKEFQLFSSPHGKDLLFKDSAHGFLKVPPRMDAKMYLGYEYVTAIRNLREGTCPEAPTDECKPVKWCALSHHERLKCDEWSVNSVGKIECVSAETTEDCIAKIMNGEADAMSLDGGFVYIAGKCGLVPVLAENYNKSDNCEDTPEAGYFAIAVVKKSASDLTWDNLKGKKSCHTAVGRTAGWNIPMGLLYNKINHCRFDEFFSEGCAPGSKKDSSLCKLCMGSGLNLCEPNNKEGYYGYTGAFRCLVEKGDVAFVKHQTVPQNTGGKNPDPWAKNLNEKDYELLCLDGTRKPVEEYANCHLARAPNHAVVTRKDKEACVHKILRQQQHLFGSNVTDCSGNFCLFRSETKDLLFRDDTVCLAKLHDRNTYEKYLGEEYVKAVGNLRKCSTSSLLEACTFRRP
Protocol: The capacity for hinokitiol to remove iron from transferrin was determined through a ^55Fe assay adapted from Cerami and coworkers (62). ^55Fe was loaded onto transferrin (Tf) similar to previously described in PBS buffer (63). Increasing hinokitiol doses (from 1000X stocks in DMSO) were added to a solution of ^55Fe2Tf (1 nM) in PBS buffer to give the final indicated concentrations. The solution was incubated at 37° C. for 3 hours. After incubation, any ^55Fe bound to hinokitiol was isolated by extraction of iron:hinokitiol complexes with EtOAc. The radioactive levels in the organic layer were determined after dilution in scintillation cocktail.

[1] = Rate of iron (III) reduction; format: physicochemical; conditions: 62.5 mM ascorbate buffer
Protocol: The rate of iron (III) reduction in the absence or presence of hinokitiol was determined using ferrozine to quantify the concentration of iron (II) similar to previously described (71). […] The absorbance at 562 nm, corresponding to Fe(ferrozine)3, was determined at the indicated time points.

shDMT1 Caco-2 monolayers = test: Iron-related protein and mRNA levels in shDMT1 Caco-2 monolayers; format: cell-based, Human; conditions: hinokitiol up to 5 μM, 25 μM FeCl3, 4 hours
Protocol: The threshold cycle values were normalized to internal control actin using primers against Fpn1 (Origene HB210988) and Fth1 (Origene HP205786) using the Pfaff1 Method and were then normalized to shDMT1 levels in the absence of hinokitiol. Caco-2 monolayers, differentiated MEL cells, or J774 cells underwent treatment as described in rescue experiments before lysis with RIPA buffer (Thermo 89901) containing protease inhibitors (Thermo 88266). Protein concentrations were determined by a BCA kit (Thermo 23225) and diluted to 2 mg/mL in the same RIPA buffer. […] Blots were thoroughly rinsed with TBST and imaged after addition of Femto Chemluminescence solution according to manufacturer instructions (Thermo Fisher 34095). For results found in FIG. 19E, protein lysate was isolated after treatment with 500 nM FeCl3 as described below. For results found in FIG. 22A, Caco-2 monolayers were treated with 25 μM FeCl3 and 0, 0.5, 1, 3, 5, 10, 25, or 50 μM hinokitiol as described below. […] Experiments for the translational and transcriptional regulated changes in endogenous proteins upon addition of increasing hinokitiol concentrations (FIG. 5F-J, FIG. 21, and FIG. 22A-L) used 25 μM of non-radioactive FeCl3 and the indicated concentration of hinokitiol (from a 1000X stock in DMSO).

normal MEL cells = test: Hemoglobinization of normal MEL cells; format: cell-based, mouse; conditions: same concentration as in deficient system
Protocol: Cells were then incubated at 37° C. for 72 hours unless otherwise noted. […] Hemoglobinized MEL cells were quantified three days after DMSO induction through o-dianisidine staining similar to previously reported (74). Cells were centrifuged three days after induction and rinsed with PBS. […] Cells were then imaged on an AXIO Zoom […] microscope to obtain color images. The number of stained cells were then quantified via ImageJ analysis and compared to the number of total cells in each image. To determine that hinokitiol requires DMSO induction for hemoglobinization, 2% DMSO was not added at the beginning of the experiment before a 72-hour incubation and o-dianisidine staining.

[2] = tested on: wild type J774 macrophages; test: 55Fe release from wild type J774 macrophages; format: cell-based, mouse; conditions: same concentration as in deficient system
Protocol: J774 cells were grown in 12-well plates to ˜80% confluency. The cells were then treated with vehicle or hepcidin in fresh J774 Complete media (1 mL) and incubated at 37° C. for 1 hour. After incubation, the media was aspirated, and then a ^55Fe2Tf (50 nM) solution in J774 Complete media (1 mL) containing vehicle or hepcidin was added. The cells were incubated at 37° C. for 10 minutes, and the media was removed. The cells were rinsed with PBS (×2), and then rinsed with J774 Complete media (1 mL) for 10 minutes at 37° C. The media was aspirated, and J774 Complete media (1 mL) containing DMSO or small molecule (5 μM unless otherwise noted, 1000X dilution) was then added in the presence or absence of hepcidin. At the indicated times, aliquots (<100 μL) of the media were removed, diluted in scintillation cocktail, and radioactivity was determined by liquid scintillation counting. After completion of the experiment, the media was removed, the cells were rinsed with PBS, and the cells were lysed with 500 μL of 200 mM NaOH at 37° C. for 2 hours with continuous shaking (50 rpm). The cell lysate was diluted in scintillation cocktail and intracellular ^55Fe levels were determined by liquid scintillation counting. The % ^55Fe release was determined by the ratio of extracellular ^55Fe to total (intracellular+ extracellular) ^55Fe at the indicated times.

[3] = tested on: Mfrn1-deficient zebrafish; test: Hemoglobinization in Mfrn1-deficient zebrafish; format: in vivo, Danio rerio

## CC(C)c1cccc(=O)c(O)c1 [hinokitiol]
fet3Δarn1-4Δ yeast
  growth restoration of fet3Δarn1-4Δ yeast: restores growth
fet3Δftr1Δ yeast
  time over which growth restoration is sustained: > 100 days
transferrin
  excess of hinokitiol relative to transferrin needed to remove iron: > 1,000 fold
[1]
  reduction of iron (III) in a reducing environment: slowed
shDMT1 Caco-2 monolayers
  Fpn1 mRNA and protein levels: decreased
  Hif1α and Hif2α levels: similarly decreased
  IRP2 protein levels: decreased
  TfR1 (3′-IRE) protein levels: decreased
  ferritin subunits (5′-IREs) protein levels: increased
Normal MEL cells
  effect on hemoglobinization in wild type system: negligible effects
[2]
  effect on iron release in wild type system: negligible effects
[3]; Mfrn1-deficient morphant zebrafish, forty-eight hours
  hemoglobinization and GFP-positive erythrocytes: restored hemoglobinization and the number of GFP-positive erythrocytes
[3]; embryos from heterozygous cross of +/frs fish
  anemic phenotype: rescued the anemic phenotype
